Reference: the SangsterLogP compilation

Assay: not given
For `BrC12CC3CC1C2C3`, the logP was 3.11.
With `BrC1CC2CCC1C2` (stereo unspecified) the logP was 3.54.

Assay: method code SF-AS, from DOI: 10.1021/je9900629
`C1=CC2C=CC1C2` gave a logP of 2.67.
Compound `C1=CC2CCC1C2` has a logP of 3.24.
For `OC1CC2C=CC1C2` (stereo unspecified), the logP was 1.24.

Assay: method code SF-HPLC, from DOI: 10.1021/je9900629
Work on `OC1CC2CCC1C2O` (stereo unspecified) yielded a logP of 0.4.
`O=C1C2CC3C(C2)C13` showed a logP of 0.81.
With `OC1CC2CCC1C2` (stereo unspecified) the logP was 1.45.
For `C1CC2CCC1C2`, the logP was 3.78.
Work on `OCC1CC2CCC1C2` (stereo unspecified) yielded a logP of 1.99.
Compound `ClC1CC2CCC1C2` (stereo unspecified) has a logP of 3.35.
`OC(C1CC1)C1CC1` gave a logP of 1.07.
In the case of `C1C2C3C2C2C1C32` (stereo unspecified), the logP is reported as 2.9.
Compound `OC1C2CC3C1C3C2O` (stereo unspecified) has a logP of -0.42.
Compound `C1CC2CC1C1OC21` (stereo unspecified) has a logP of 1.58.
Compound `OC1C2CCC(C2)C1O` (stereo unspecified) has a logP of 0.4.
